Experimental data from US12331071B2, “Bile acid derivative salt, crystal structure thereof, preparation method therefor and use thereof” (XI'AN BIOCARE PHARMA LTD., priority 2020, dated 2025).
Where a name gives a salt, the structure may show the parent alone.

Experiments:
[1] = Dynamic vapor sorption (DVS) hygroscopicity analysis; type: physicochemical
Protocol: The obtained solid form of the salt was analyzed by dynamic vapor sorption (DVS), using a dynamic vapor sorption analyzer with a model IGA Sorp (Hidentity Isochema). The samples are measured in gradient mode and tested over a humidity range of 0% to 90% with 10% humidity increments for each gradient.
The compound has strong hygroscopicity and is not conducive to preservation. The obtained salt solid form was analyzed by using dynamic vapor sorption (DVS). The hygroscopicity comparison between the hydrochloride salt crystalline form A and the mesylate salt crystalline form C is compared.

[2] = Stability of crystalline form during thermal treatment and grinding (XRPD); type: physicochemical
Protocol: The crystalline form A was heated to 100° C. through programmed temperature or kept at 80° C. for 24 h in DSC.
A certain amount of hydrochloride salt crystalline form A was added to a mortar and ground at room temperature for 5 minutes.

[3] = system: 17α-Ethinylestradiol (E2-17a) induced cholestasis in rats; assay: 17α-ethinylestradiol (E2-17α) induced cholestasis in rats; type: in vivo
Protocol: Experimental method: E2-17α was administered by subcutaneous injection in the neck. The test compounds were administered by gavage for 7 days after modeling. After the last day of administration, the rats were fasted but had access to water. The experiment was performed on the next day, and treatment was performed after 24 h. The rats were anesthetized by intraperitoneal injection of 20% urethane (7 ml/kg). After anesthesia, the rats were fixed on a rat board to make a median abdominal incision from the xiphoid process of the upper abdomen downward, with a 3-4 cm incision. The common bile duct was isolated. A PE-10 polyethylene catheter (inner diameter: 0.28 mm, outer diameter: 0.61 mm) was used for intubation operation of the bile ducts. During the operation, the body […] was maintained between 37° C. and 38° C. with warm lamps and air conditioners to prevent changes in bile flow rate at low temperature. After the intubation was completed, the skin was sutured to prevent the water evaporation from the abdominal cavity. The other end of the bile duct cannula was drawn out and flowed into a fixed 0.2 mL collection tube, to consecutively perform collection every 15 min for 8 times.
Before the experiment, the weight of the bile collection tube was accurately weighed and recorded as B1. After the bile collection was completed in the experiment, the total weight of the bile and the collection tube was weighed and recorded as A2. The weight of bile in the tube was calculated by subtracting B1 from A2, and converted into volume according to 1 g/mL. The amount of bile secretion of rats in each group was expressed as mean±standard deviation (Mean±S.D). Bile Flow Rate (μL/Kg/Min)=(A2−B1)×1000000/Body Weight
The blood samples were allowed to stand for 2 h at room temperature, and centrifuged at 4000 rpm for 15 min. The serum was routinely separated to detect ALT, AST, and ALP. The left serum was aliquoted and frozen at −20° C. for subsequent detection.

[4] = system: AMLN diet-induced NASH in ob/ob mice; assay: AMLN diet-induced NASH in ob/ob mice; type: in vivo
Protocol: Test method: (1) C57 mice and ob/ob mice were adaptively reared for 1 week. (1) The C57 mice were given LFD diet (normal mouse group), and the ob/ob mice were divided into two groups: (2) 15 mice were given LFD diet (blank control group), and the rest were given AMLN diet (containing 40 kcal % fat, 20 kcal % fructose and 2% cholesterol) for 14 weeks. (2) Sampling for pathology detection: C57+LFD diet group (n=3), ob/ob+ AMLN diet group (n=3), liver lesions were evaluated according to NAFLD activity score to estimate the degree of model construction; the mice in the ob/ob+ AMLN diet group were tested for fasting blood glucose (FBG); and blood was collected from the eye socket. The serum was separated, and ALT and insulin (INS) in the serum were detected. (3) Insulin resistance (HOMA-IR) was calculated according to HOMA-IR═INS(μ/mL)×FBG(mM)/22.5.

[5] = AMLN diet-induced Lep^ob/Lep^ob mice NASH model

Compound: CC[C@@H]1C2C[C@H](O)CC[C@]2(C)C2CC[C@@]3(C)C(CC[C@@H]3[C@H](C)CCO[P@@]3(=O)OCC[C@@H](c4ccncc4)O3)C2[C@@H]1O (stereo partly drawn) [hydrochloride salt crystalline form A]
- Hygroscopicity at low humidity ([1]; relative humidity lower than 75%): small
- Hygroscopicity (DVS results) ([1]; relative humidity of 80%): hygroscopicity was 3.569%
- overall hygroscopicity, compared between salt forms ([1]; versus mesylate salt crystalline form C): lower than that of mesylate salt crystalline form C
- XRPD after grinding ([2]; ground in a mortar at room temperature for 5 minutes): main diffraction peaks of the obtained samples have not changed
- XRPD after thermal treatment ([2]; heated to 100° C. through programmed temperature or kept at 80° C. for 24 h in DSC): main diffraction peaks of the obtained samples have not change

Compound: CC[C@@H]1C2C[C@H](O)CC[C@]2(C)C2CC[C@@]3(C)C(CC[C@@H]3[C@H](C)CCO[P@@]3(=O)OCC[C@@H](c4ccncc4)O3)C2[C@@H]1O (stereo partly drawn) [hydrochloride salt of Compound 1]
- strength for promoting bile excretion, compared with the E2-17α group ([3]; gavage for 7 days): significantly increased
- effect of promoting bile excretion, compared with Compound 1 ([3]; gavage for 7 days, hydrochloride salt prepared in Example 3): superior effect of promoting bile excretion over Compound 1
- biliary excretion amount after 120 minutes ([3]; versus model group (E2-17α group)): still higher than that in the model group
- hepatocyte ballooning [4, 5]: reduce
- intralobular inflammation [4, 5]: reduce
- total score of NASH model ([4]; AMLN diet-induced Lep^ob/Lep^ob mouse NASH model): significantly reduce
- level of ALT in the serum ([4]; NASH mice): significantly reduce
- level of AST in the serum ([4]; NASH mice): significantly reduce
- liver fibrosis ([4]; NASH mice): significantly reduce

Compound: CC[C@@H]1C2C[C@H](O)CC[C@]2(C)C2CC[C@@]3(C)C(CC[C@@H]3[C@H](C)CCO[P@@]3(=O)OCC[C@@H](c4ccncc4)O3)C2[C@@H]1O.CS(=O)(=O)O (stereo partly drawn) [mesylate salt crystalline form C]
- solid state (XRPD) after DVS ([1]; after moisture absorption): changes to an amorphous form
